Data set [1] deals with T1, 5-hydroxyltryptamine 3 receptor precursor (5-HT3 receptor) (Homo sapiens, UniProt P46098).
T1 sequence (P46098 24-478): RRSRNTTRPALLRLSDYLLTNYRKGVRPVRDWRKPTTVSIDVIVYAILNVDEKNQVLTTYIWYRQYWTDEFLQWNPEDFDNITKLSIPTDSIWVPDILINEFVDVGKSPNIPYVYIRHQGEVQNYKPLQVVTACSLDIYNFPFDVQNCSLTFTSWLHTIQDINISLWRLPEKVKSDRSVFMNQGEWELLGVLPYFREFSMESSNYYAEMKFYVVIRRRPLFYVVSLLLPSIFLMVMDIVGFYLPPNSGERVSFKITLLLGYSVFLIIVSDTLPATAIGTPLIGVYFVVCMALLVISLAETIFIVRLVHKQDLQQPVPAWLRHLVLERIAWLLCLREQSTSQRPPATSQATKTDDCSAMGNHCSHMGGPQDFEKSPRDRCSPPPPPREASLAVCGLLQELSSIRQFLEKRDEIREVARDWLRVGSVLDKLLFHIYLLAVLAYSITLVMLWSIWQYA
The note with it: in vitro, literature (Wong 1995; Eglen 1995); cited from earlier work.

Data set [2] deals with other receptors such as dopamine receptors. Conditions: literature (Wong 1995; Eglen 1995); cited from earlier work.
Data set [3] is described as follows: Physical stability determination of polymorphs and amorphous phase. In kind it is physicochemical. On the procedure: Physical Stability Determination—The physical stability of the polymorphs was determined by wetting the powders with water, suspending in ethanol, ethyl acetate, and exposing them to 93% relative humidity (RH) and 26% RH. The DSC thermogram and the x-ray diffraction pattern were obtained after a few days to determine if phase changes had occurred. The physical stability of the amorphous phase was determined by equilibrating a sample at 40° C., 75% RH for two weeks.

Data set [4] can be described thus: Hygroscopicity measurement (water absorption at constant relative humidity). In kind it is physicochemical. Conditions: for hygroscopicity: humidities up to 82% RH. On the procedure:
Hygroscopicity Measurement—Samples of 20-30 mg of the compound were weighed into small weighing bottles with ground glass tops. The bottles were dried in a 60° C. oven for 30 minutes. The samples were cooled in a dessicator containing anhydrous CaSO4 and then transferred to humidity chambers maintained at constant relative humidities with saturated salt solutions. The samples were weighed at different time intervals until equilibrium was reached. The percent moisture absorbed at a given time was calculated as follows: % Weight Change=((Wt−Wo)/Wo)×100 wherein W1=sample weight at given time after exposure to the indicated relative humidity, and Wo=initial sample weight.

Consider five molecules from patent US20100105724A1, “CRYSTALLINE AND AMORPHOUS FORMS OF PALONOSETRON HYDROCHLORIDE” (HELSINN HEALTHCARE SA, priority 2006, published 2010).

Consider `O=C1c2cccc3c2[C@H](CCC3)CN1[C@@H]1CN2CCC1CC2` (single isomer, unassigned) [Palonosetron], for which the “affinity as an antagonist for the 5-HT3 receptor” value in data set [1] was “high affinity”. Also, the “affinity for other receptors such as dopamine receptors” value in data set [2] is “low affinity”.

In the case of `Cl.O=C1c2cccc3c2[C@H](CCC3)CN1[C@@H]1CN2CCC1CC2` [Form II], in data set [3] (suspended in ethanol for one week at ambient temperature (~25° C.)), the “phase change in suspension” value was “converted to Form I”.

As for `Cl.O=C1c2cccc3c2[C@H](CCC3)CN1[C@@H]1CN2CCC1CC2` [Form I], the “physical stability at high humidity” value in data set [3] (93% relative humidity, two weeks, ambient temperature) is “deliquesced”. Moreover, the “physical stability as a suspension” value in data set [3] (suspension in ethanol), in data set [3] (suspension in ethyl acetate) and in data set [3] (suspension in water) was “stable” each time. The Water absorbed in data set [4] (50% relative humidity, 1 day) worked out at 0.02 weight %; in data set [4] (50% relative humidity, 4 days), 0.14 weight %; in data set [4] (50% relative humidity, 8 days), 0.05 weight %; in data set [4] (75% relative humidity, 1 day), 0.15 weight %; in data set [4] (75% relative humidity, 4 days), 0.22 weight %; in data set [4] (75% relative humidity, 8 days) it was 0.22 weight %. For the same molecule, the Water absorbed stood at 0.14 weight % in data set [4] (82% relative humidity, 1 day); 0.25 weight % in data set [4] (82% relative humidity, 4 days); 0.54 weight % in data set [4] (82% relative humidity, 8 days); 0.07 weight % in data set [4] (93% relative humidity, 1 day); 0.63 weight % in data set [4] (93% relative humidity, 4 days); 25.7 weight % in data set [4] (93% relative humidity, 8 days). Further, the Water absorbed in data set [4] (humidities up to 82%, after eight days) was found to be 0.5%. The molecule further yielded a moisture absorbed in data set [4] (93% RH, after eight days) of 26%. The “physical change on exposure to humidity” value in data set [4] (93% RH, after eight days) is listed as “turning into a paste”; in data set [4] (93% RH, two weeks), “liquefied”. In data set [4] (93% relative humidity, 8 days), the “physical state of sample” value is given as “Semi”. Further, in data set [4] (93% relative humidity, 15 days), the “Water absorbed (physical state printed)” value is recorded as “Liquid”. Moreover, the hygroscopicity entry in data set [4] is on record as “not hygroscopic”.

Turning to `Cl.O=C1c2cccc3c2[C@H](CCC3)CN1[C@@H]1CN2CCC1CC2` [Palonosetron hydrochloride, (3aS)-2-[(S)-1-Azabicyclo [2.2.2]oct-3-yl]-2,3,3a,4,5,6-hexahydro-1-oxo-1Hbenz[de] isoquinoline hydrochloride], the “physical change on exposure to humidity” value in data set [4] (93% RH, after eight days, hydrochloride) is “liquefies”. Besides, the hygroscopicity result in data set [4] (hydrochloride) is given as “nonhygroscopic”.

Consider `Cl.O=C1c2cccc3c2[C@H](CCC3)CN1[C@@H]1CN2CCC1CC2` [amorphous form], for which the “physical stability at low humidity” value in data set [3] (26% RH, two weeks) is given as “remained amorphous”. Further, in data set [3] (40° C., 75% RH, two weeks), the “phase change on equilibration” value is recorded as “converted to Form I”. In addition, in data set [3] (ambient humidity, subsequent to deliquescence), the “solid form after deliquescence at ambient humidity” value is given as “re-solidified as Form II”. In data set [3] (removed from the desiccator, ambient humidity), the “behaviour on exposure to ambient humidity” value is reported as “deliquesced immediately”.
